# Reference: patent US20080255206A1, “Rxr Agonists and Antagonists, Alone or in Combination with Ppar Ligands, in the Treatment of Metabolic and Cardiovascular Diseases” (priority 2005, published 2008)
# How the values were obtained:
# db/db mice = test: Investigation with db/db mice (blood glucose and lipids); type: in vivo, mouse; conditions: for Glucose Diff. D o − D 12 / HDL-cholesterol Diff. D o − D 12 / Total cholesterol Diff. D o − D 12 / Triglycerides Diff. D o − D 12: change day 0 to day 12; for Glucose D o / HDL-cholesterol D o / Total cholesterol D o / Triglycerides D o: day 0; for Glucose D 12 / HDL-cholesterol D 12 / Total cholesterol D 12 / Triglycerides D 12: day 12; for Glucose D-4 / HDL-cholesterol D-4 / Total cholesterol D-4 / Triglycerides D-4: day −4
# Experimental: The following compounds are investigated and compared to placebo (vehicle control).
# The mentioned 3 compounds are tested in db/db mice during a time when diabetes is in a rapid developing stage. […] Each dosage group and the vehicle group comprise 7 mice. The suspensions used are prepared with peroxide free arachis oil as vehicle. Blood samples are collected by retro-orbital bleeding at days −4, 0 and 12. The blood levels of glucose, triglycerides, total cholesterol, and HDL-cholesterol are determined.
# For evaluation of efficacy, the difference between the values of glucose, triglycerides, total cholesterol and HDL-cholesterol changing from day 0 to day 12 is determined and expressed in %. […] Overall evaluation consists in determining the efficacy of the compounds by calculating the whole extent of the effect expressed in %. […] This value is considered as a valuable indicator for the efficacy of the investigated compounds administered in a tolerated dose.
# skin of rats = test: Topical administration to the skin of rats (irritation); type: in vivo; conditions: concentrations up to 2.5%
# [1] = tested on: human skin inflammation induced by topical 9-cis RA; test: Therapeutic effect on 9-cis RA-induced human skin inflammation, clinical pilot trial; type: in vivo
# Experimental: In the following pilot clinical trial on one healthy volunteer the compounds are applied epicutaneously. 9-cis RA being known for its skin inflammation potential is used in concentrations of 0.1%, 0.3% and 1%. Compound 15 (RXR antagonist) concentration is 1%. The compounds are solved in ethanol/propylene glycol (1:1). 9-cis RA is applied twice daily, 7 days a week, for two consecutive weeks. The site of application is an area of 3×3=9 cm^2 on the abdominal skin. The volume is 0.1 ml per administration. The treatment with compound 15, administered twice daily in a concentration of 1%, is started on day 15 when treatment with 9-cis RA is discontinued. This treatment lasts from day 15 to day 22. For a correct evaluation comparative areas with inflammation induced by 9-cis RA are treated with the vehicle, ethanol/propylene glycol, from day 15 to 22. The post-treatment period lasts until day 28.
# The signs and symptoms of skin inflammation are recorded on a 0-4 scale, as described in example 21.
# For evaluation of the anti-inflammatory effect of compound 15, the sum of the daily inflammation scores from day 15 to day 28 is determined, as well as the time to complete disappearance of skin inflammation from day 15 on.
# [2] = tested on: skin inflammation induced by topical 9-cis RA; test: Preventive and therapeutic effect on 9-cis RA-induced skin inflammation, human volunteer study; type: in vivo
# Experimental: In this pilot clinical trial on one healthy volunteer, the substance 9-cis RA and compound 15 are administered epicutaneously. The inflammation-inducing agent 9-cis RA is used in a concentration of 0.3%. The RXR antagonist compound 15 is applied in a concentration of 1%. The compounds are solved in ethanol/propylene glycol (1:1) and administered twice daily. The site of application is the abdominal skin, with various areas of 3×3=9 cm^2. Volume per application is 0.1 ml.
# The following three clinical settings at different sites are chosen: • 1. Induction of skin inflammation by 9-cis RA 9-cis RA is administered as a 0.3% solution twice daily from day 1 to day 14. The vehicle is administered from day 15 to disappearance of skin inflammation. • 2. Prevention of 9-cis RA-induced skin inflammation by RXR antagonist Compound 15 9-cis RA solution of 0.3% is administered twice daily from day 1 to day 14, each time followed subsequently by application of compound 15 as a 1% solution. • 3. Therapy of 9-cis RA-induced skin inflammation by RXR antagonist compound 15 9-cis RA solution of 0.3% is administered twice daily from day 1 to day 14. Compound 15 as a 1% solution is administered from day 15 until disappearance of skin inflammation.
# The signs and symptoms of skin inflammation are recorded on a 0-4 scale, as described in example 21. The evaluation of the anti-inflammatory effect is based on the daily determination of the inflammation score (scale 0-4).
# The following parameters serve as criteria for evaluation of the effect of 9-cis RA, the preventive effect of compound 15 and the therapeutic effect of compound 15. • 1. Sum of the daily inflammation scores from day 1 to day 28. Total inflammation score. • 2. Sum of the daily inflammation scores from day 15 to disappearance of skin inflammation. • 3. Time in days from day 15 to disappearance of skin inflammation.
# [3] = 30 mg/kg/day group versus vehicle group
# [4] = 9-cis RA 0.1% day 1-14, followed by compound 15 1% day 15-22
# [5] = 9-cis RA 0.3% day 1-14, followed by compound 15 1% day 15-22
# [6] = 9-cis RA 1% day 1-14, followed by compound 15 1% day 15-22
# [7] = Prevention: 9-cis RA 0.3% and compound 15 1%, both day 1 to day 14
# [8] = Therapy: 9-cis RA 0.3% day 1 to day 14, compound 15 1% day 15 to disappearance of inflammation
structure (smiles),measurement,setting,value
"CCCCOc1c(\C(C)=C/C=C/C(C)=C/C(=O)O)cc(C(C)(C)C)cc1C(C)(C)C [Compound 15, (2E,4E,6Z)-7-[2-butoxy-3,5-bis(1,1-dimethylethyl)phenyl]-3-methyl-2,4,6-octatrienoic acid]",Glucose Diff. D o − D 12,db/db mice; 0.3 mg/kg/day i.p.,+20.8%
same,HDL-cholesterol Diff. D o − D 12,db/db mice; 0.3 mg/kg/day i.p.,−5.0%
same,Total cholesterol Diff. D o − D 12,db/db mice; 0.3 mg/kg/day i.p.,−5.7%
same,Triglycerides Diff. D o − D 12,db/db mice; 0.3 mg/kg/day i.p.,−0.6%
same,Glucose D o,db/db mice; 0.3 mg/kg/day i.p.,226 mg/dL
same,HDL-cholesterol D o,db/db mice; 0.3 mg/kg/day i.p.,3.00 mmol/L
same,Total cholesterol D o,db/db mice; 0.3 mg/kg/day i.p.,4.05 mmol/L
same,Triglycerides D o,db/db mice; 0.3 mg/kg/day i.p.,1.78 mmol/L
same,Glucose D 12,db/db mice; 0.3 mg/kg/day i.p.,273 mg/dL
same,HDL-cholesterol D 12,db/db mice; 0.3 mg/kg/day i.p.,2.85 mmol/L
same,Total cholesterol D 12,db/db mice; 0.3 mg/kg/day i.p.,3.82 mmol/L
same,Triglycerides D 12,db/db mice; 0.3 mg/kg/day i.p.,1.77 mmol/L
same,Glucose D-4,db/db mice; 0.3 mg/kg/day i.p.,153 mg/dL
same,HDL-cholesterol D-4,db/db mice; 0.3 mg/kg/day i.p.,2.43 mmol/L
same,Total cholesterol D-4,db/db mice; 0.3 mg/kg/day i.p.,4.52 mmol/L
same,Triglycerides D-4,db/db mice; 0.3 mg/kg/day i.p.,2.28 mmol/L
same,Glucose levels (in words),db/db mice; 3 mg/kg/day,markedly lowers glucose levels
same,HDL-cholesterol levels (in words),db/db mice; 3 mg/kg/day,markedly raised
same,Triglyceride levels (in words),db/db mice; 3 mg/kg/day,markedly decreasing
same,Glucose Diff. D o − D 12,db/db mice; 3.0 mg/kg/day i.p.,+4.1%
same,HDL-cholesterol Diff. D o − D 12,db/db mice; 3.0 mg/kg/day i.p.,+18.4%
same,Total cholesterol Diff. D o − D 12,db/db mice; 3.0 mg/kg/day i.p.,−11.1%
same,Triglycerides Diff. D o − D 12,db/db mice; 3.0 mg/kg/day i.p.,−44.9%
same,Glucose D o,db/db mice; 3.0 mg/kg/day i.p.,270 mg/dL
same,HDL-cholesterol D o,db/db mice; 3.0 mg/kg/day i.p.,2.88 mmol/L
same,Total cholesterol D o,db/db mice; 3.0 mg/kg/day i.p.,3.95 mmol/L
same,Triglycerides D o,db/db mice; 3.0 mg/kg/day i.p.,2.16 mmol/L
same,Glucose D 12,db/db mice; 3.0 mg/kg/day i.p.,281 mg/dL
same,HDL-cholesterol D 12,db/db mice; 3.0 mg/kg/day i.p.,3.41 mmol/L
same,Total cholesterol D 12,db/db mice; 3.0 mg/kg/day i.p.,4.39 mmol/L
same,Triglycerides D 12,db/db mice; 3.0 mg/kg/day i.p.,1.19 mmol/L
same,Glucose D-4,db/db mice; 3.0 mg/kg/day i.p.,192 mg/dL
same,HDL-cholesterol D-4,db/db mice; 3.0 mg/kg/day i.p.,2.47 mmol/L
same,Total cholesterol D-4,db/db mice; 3.0 mg/kg/day i.p.,4.62 mmol/L
same,Triglycerides D-4,db/db mice; 3.0 mg/kg/day i.p.,2.15 mmol/L
same,Glucose levels (in words),db/db mice; 30 mg/kg/day,decrease markedly
same,HDL-cholesterol levels (in words),db/db mice; 30 mg/kg/day,markedly increased
same,Total cholesterol levels (in words),db/db mice; 30 mg/kg/day,slightly higher
same,Triglyceride levels (in words),db/db mice; 30 mg/kg/day,very strongly
same,Overall extent of the effect on blood levels of Glucose,db/db mice; [3],−58.0%
same,Overall extent of the effect on blood levels of HDL-cholesterol,db/db mice; [3],+14.2%
same,Overall extent of the effect on blood levels of Total cholesterol,db/db mice; [3],+14.9%
same,Overall extent of the effect on blood levels of Triglycerides,db/db mice; [3],−73.0%
same,Glucose Diff. D o − D 12,db/db mice; 30 mg/kg/day i.p.,−8.8%
same,HDL-cholesterol Diff. D o − D 12,db/db mice; 30 mg/kg/day i.p.,+10.4%
same,Total cholesterol Diff. D o − D 12,db/db mice; 30 mg/kg/day i.p.,+6.1%
same,Triglycerides Diff. D o − D 12,db/db mice; 30 mg/kg/day i.p.,−50.9%
same,Glucose D o,db/db mice; 30 mg/kg/day i.p.,294 mg/dL
same,HDL-cholesterol D o,db/db mice; 30 mg/kg/day i.p.,3.07 mmol/L
same,Total cholesterol D o,db/db mice; 30 mg/kg/day i.p.,4.27 mmol/L
same,Triglycerides D o,db/db mice; 30 mg/kg/day i.p.,2.18 mmol/L
same,Glucose D 12,db/db mice; 30 mg/kg/day i.p.,268 mg/dL
same,HDL-cholesterol D 12,db/db mice; 30 mg/kg/day i.p.,3.39 mmol/L
same,Total cholesterol D 12,db/db mice; 30 mg/kg/day i.p.,4.53 mmol/L
same,Triglycerides D 12,db/db mice; 30 mg/kg/day i.p.,1.07 mmol/L
same,Glucose D-4,db/db mice; 30 mg/kg/day i.p.,184 mg/dL
same,HDL-cholesterol D-4,db/db mice; 30 mg/kg/day i.p.,2.45 mmol/L
same,Total cholesterol D-4,db/db mice; 30 mg/kg/day i.p.,3.98 mmol/L
same,Triglycerides D-4,db/db mice; 30 mg/kg/day i.p.,1.85 mmol/L
same,Irritation or inflammation of the skin,skin of rats,does not lead to irritation or inflammation of the skin
same,Sum of daily inflammation scores from day 15 to disappearance of inflammation,[1]; [4],2.5
same,Time in days from day 15 to disappearance of inflammation,[1]; [4],3 days
same,Sum of daily inflammation scores from day 15 to disappearance of inflammation,[1]; [5],5.5
same,Time in days from day 15 to disappearance of inflammation,[1]; [5],6 days
same,Sum of daily inflammation scores from day 15 to disappearance of inflammation,[1]; [6],11
same,Time in days from day 15 to disappearance of inflammation,[1]; [6],8 days
same,Sum of daily inflammation scores from day 15 to disappearance of inflammation,[2]; [7],5
same,"Sum of daily inflammation scores, day 1 to day 28. Total inflammation score",[2]; [7],11
same,Time in days from day 15 to disappearance of inflammation,[2]; [7],6 days
same,Sum of daily inflammation scores from day 15 to disappearance of inflammation,[2]; [8],5
same,"Sum of daily inflammation scores, day 1 to day 28. Total inflammation score",[2]; [8],9
same,Time in days from day 15 to disappearance of inflammation,[2]; [8],6 days
